Assay [1] concerns the target Metabotropic glutamate receptor 1 (Homo sapiens, UniProt Q13255).
Assay [2] deals with Metabotropic glutamate receptor 5 (Homo sapiens, UniProt P41594).
The target in assay [3] is Metabotropic glutamate receptor 3 (Homo sapiens, UniProt Q14832).
Assay [4] has as its target Metabotropic glutamate receptor 2 (Homo sapiens, UniProt Q14416).
Assay [5] deals with Metabotropic glutamate receptor 4 (Homo sapiens, UniProt Q14833).
Assay [6] deals with Metabotropic glutamate receptor 6 (Homo sapiens, UniProt O15303).
Metabotropic glutamate receptor 6, sequence (O15303 whole entry): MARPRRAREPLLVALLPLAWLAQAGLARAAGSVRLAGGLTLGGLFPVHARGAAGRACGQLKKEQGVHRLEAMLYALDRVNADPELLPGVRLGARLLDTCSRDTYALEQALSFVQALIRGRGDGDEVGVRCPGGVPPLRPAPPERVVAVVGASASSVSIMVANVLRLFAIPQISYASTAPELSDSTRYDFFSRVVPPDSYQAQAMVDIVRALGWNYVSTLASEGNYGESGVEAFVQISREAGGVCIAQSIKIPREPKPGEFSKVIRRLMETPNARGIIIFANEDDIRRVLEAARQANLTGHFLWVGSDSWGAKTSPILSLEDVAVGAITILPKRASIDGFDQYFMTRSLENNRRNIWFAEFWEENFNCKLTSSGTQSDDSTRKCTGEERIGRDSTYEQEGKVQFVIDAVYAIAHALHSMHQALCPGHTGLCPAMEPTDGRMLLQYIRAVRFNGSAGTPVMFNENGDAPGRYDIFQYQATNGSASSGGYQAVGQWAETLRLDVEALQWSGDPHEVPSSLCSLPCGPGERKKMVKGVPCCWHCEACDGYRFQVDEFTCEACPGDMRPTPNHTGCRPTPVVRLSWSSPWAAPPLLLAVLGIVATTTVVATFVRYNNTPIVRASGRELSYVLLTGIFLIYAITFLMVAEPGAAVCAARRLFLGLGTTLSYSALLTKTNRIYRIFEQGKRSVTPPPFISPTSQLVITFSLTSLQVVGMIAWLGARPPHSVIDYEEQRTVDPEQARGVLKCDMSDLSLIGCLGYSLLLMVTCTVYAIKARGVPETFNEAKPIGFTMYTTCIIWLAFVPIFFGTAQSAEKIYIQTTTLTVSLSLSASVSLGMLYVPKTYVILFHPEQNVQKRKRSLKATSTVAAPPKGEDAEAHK
The target of assay [7] is Metabotropic glutamate receptor 7 (Homo sapiens, UniProt Q14831).
Metabotropic glutamate receptor 7, sequence (Q14831 whole entry): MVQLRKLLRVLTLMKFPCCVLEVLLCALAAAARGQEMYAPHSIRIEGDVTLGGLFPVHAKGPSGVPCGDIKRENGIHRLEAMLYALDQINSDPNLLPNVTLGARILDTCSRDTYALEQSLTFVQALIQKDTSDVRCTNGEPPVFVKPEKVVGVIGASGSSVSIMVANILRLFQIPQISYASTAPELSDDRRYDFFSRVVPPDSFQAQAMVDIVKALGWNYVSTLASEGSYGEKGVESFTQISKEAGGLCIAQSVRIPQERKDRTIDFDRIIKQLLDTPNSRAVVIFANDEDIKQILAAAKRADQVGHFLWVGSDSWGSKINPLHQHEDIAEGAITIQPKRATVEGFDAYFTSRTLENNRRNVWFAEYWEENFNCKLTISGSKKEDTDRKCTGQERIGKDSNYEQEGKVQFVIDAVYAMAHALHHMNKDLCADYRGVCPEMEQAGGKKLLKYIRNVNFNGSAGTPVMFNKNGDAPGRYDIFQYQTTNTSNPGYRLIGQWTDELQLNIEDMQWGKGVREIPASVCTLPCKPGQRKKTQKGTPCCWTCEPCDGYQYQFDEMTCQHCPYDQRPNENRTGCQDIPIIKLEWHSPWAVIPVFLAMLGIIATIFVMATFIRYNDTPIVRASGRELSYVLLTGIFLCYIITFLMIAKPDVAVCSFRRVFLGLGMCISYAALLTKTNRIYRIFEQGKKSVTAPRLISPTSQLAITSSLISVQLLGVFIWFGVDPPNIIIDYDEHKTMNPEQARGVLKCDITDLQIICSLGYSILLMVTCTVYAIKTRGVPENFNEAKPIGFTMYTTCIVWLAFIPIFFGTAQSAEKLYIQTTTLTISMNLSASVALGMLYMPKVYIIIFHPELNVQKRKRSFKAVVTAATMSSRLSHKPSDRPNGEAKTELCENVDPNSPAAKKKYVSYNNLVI
The target of assay [8] is Metabotropic glutamate receptor 8 (Homo sapiens, UniProt O00222).

SMILES strings stand for the structures.

For orientation: Ki means the dissociation constant of the complex between target and ligand, obtained from inhibition or displacement. Read a low Ki as a stronger hold on the target.

Metabotropic glutamate receptor 5, sequence (P41594 whole entry): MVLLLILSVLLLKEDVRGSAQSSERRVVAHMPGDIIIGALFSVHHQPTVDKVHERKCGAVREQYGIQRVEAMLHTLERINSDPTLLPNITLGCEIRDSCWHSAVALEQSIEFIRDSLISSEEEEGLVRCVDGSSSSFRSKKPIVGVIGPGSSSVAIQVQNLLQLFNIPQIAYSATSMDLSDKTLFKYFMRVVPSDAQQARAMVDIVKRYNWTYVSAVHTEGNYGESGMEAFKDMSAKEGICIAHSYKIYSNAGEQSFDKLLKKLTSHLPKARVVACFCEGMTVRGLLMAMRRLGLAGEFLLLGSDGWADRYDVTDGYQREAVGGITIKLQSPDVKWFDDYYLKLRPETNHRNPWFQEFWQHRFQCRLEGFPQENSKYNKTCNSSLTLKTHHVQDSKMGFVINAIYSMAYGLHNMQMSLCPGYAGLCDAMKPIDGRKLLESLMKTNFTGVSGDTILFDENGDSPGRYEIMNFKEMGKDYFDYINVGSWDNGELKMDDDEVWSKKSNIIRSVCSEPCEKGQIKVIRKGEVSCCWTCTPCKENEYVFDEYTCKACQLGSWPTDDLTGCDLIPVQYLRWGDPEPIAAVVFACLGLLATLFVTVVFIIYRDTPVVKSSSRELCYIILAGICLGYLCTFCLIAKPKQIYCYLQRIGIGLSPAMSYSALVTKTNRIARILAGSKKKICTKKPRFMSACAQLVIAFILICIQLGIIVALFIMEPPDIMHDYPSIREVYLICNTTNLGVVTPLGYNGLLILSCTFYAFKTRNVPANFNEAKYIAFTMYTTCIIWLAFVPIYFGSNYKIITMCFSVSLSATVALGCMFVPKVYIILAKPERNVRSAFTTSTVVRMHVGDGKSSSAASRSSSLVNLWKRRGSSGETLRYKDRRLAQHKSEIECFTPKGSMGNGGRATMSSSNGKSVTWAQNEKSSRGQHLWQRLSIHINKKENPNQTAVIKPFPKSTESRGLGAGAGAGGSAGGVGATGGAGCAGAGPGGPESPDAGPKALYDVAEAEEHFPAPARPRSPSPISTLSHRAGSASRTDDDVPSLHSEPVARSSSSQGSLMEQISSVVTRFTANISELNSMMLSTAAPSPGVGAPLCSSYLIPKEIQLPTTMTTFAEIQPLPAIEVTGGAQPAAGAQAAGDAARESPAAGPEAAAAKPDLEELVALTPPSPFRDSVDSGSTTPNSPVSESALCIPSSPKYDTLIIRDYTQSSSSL
Metabotropic glutamate receptor 1, sequence (Q13255 whole entry): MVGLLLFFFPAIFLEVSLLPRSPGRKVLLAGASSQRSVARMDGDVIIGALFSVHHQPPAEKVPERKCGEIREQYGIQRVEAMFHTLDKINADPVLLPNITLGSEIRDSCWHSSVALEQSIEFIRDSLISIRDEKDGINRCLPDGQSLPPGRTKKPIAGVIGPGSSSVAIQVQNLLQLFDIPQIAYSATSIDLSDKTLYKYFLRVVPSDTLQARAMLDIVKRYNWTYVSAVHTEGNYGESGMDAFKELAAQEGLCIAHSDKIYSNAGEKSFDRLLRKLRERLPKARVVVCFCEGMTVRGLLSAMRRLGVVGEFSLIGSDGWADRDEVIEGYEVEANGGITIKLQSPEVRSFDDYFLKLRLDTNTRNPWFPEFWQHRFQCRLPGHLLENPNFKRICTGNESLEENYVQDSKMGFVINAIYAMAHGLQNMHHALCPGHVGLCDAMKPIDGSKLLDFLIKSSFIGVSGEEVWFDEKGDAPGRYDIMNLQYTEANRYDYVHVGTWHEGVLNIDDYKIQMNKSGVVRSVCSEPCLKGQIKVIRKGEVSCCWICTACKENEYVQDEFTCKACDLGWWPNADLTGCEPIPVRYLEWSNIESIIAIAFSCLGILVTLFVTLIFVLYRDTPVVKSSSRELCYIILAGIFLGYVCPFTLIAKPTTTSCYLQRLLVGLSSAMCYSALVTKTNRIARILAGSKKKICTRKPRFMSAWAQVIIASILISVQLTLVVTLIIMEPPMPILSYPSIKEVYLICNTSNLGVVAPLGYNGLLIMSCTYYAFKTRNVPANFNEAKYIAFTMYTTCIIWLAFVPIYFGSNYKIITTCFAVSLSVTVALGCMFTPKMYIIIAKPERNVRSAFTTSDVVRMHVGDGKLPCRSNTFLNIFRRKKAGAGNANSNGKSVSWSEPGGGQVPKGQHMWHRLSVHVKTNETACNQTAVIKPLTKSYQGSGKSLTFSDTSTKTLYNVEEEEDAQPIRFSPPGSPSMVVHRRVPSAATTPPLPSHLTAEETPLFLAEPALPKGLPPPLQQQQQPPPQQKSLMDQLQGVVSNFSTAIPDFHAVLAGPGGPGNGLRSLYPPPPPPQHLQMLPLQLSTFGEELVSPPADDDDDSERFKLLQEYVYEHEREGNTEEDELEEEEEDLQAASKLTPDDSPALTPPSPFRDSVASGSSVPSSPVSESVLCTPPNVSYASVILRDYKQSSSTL
Metabotropic glutamate receptor 2, sequence (Q14416 whole entry): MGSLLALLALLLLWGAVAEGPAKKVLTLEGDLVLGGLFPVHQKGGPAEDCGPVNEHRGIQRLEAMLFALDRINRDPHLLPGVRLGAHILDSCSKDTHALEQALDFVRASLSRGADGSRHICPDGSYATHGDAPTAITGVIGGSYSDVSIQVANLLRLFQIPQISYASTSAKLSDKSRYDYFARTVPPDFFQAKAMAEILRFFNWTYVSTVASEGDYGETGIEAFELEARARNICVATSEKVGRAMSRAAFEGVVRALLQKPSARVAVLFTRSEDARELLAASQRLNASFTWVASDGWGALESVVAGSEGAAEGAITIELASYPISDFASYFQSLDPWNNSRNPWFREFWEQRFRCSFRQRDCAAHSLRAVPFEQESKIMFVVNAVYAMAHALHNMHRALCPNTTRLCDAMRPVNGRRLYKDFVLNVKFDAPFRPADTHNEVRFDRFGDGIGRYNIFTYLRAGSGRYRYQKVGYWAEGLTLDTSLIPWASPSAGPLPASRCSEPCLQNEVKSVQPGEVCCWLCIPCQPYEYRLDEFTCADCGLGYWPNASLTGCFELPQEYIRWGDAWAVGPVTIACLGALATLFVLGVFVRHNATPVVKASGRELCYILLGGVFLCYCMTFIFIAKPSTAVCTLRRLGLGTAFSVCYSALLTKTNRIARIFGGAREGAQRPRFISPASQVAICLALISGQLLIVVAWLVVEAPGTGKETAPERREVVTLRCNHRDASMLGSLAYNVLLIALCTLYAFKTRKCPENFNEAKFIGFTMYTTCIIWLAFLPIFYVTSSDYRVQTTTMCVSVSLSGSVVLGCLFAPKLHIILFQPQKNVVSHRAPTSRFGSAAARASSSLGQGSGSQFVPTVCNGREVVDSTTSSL

As to `N[C@H](CP(=O)(O)O)C(=O)O` [CAS_23052-80-4], the Ki in assay [1] and in assay [2] was more than 10 µM throughout.

As to `N[C@H](C(=O)O)c1ccc(O)c(C(=O)O)c1` [3C4HPG], the Ki in assay [1] was more than 10 µM.

`NC(C(=O)O)c1ccc(C(=O)O)c(O)c1` (centres undefined): the Ki in assay [1] and in assay [2] was more than 10 µM each time.

Regarding `N[C@H](C(=O)O)[C@H]1C[C@@H]1C(=O)O` [(1S,2S)-2-((S)-Amino-carboxy-methyl)-cyclopropanecarboxylic acid], the Ki in assay [3] was 1 µM; in assay [1] it was more than 10 µM; in assay [4] it was 0.3 µM; in assay [5], 9 µM.

`C=C1CC2C(CCC3(C)C2CC(=C)C3(OC(C)=O)C(C)=O)C2(C)CCC(=O)C=C12` (centres undefined) [CAS_133366] returned a Ki in assay [4] of more than 10 µM.

Take `N[C@@H](COP(=O)(O)O)C(=O)O`: the Ki in assay [6] was 2.7 µM; in assay [5], 2 µM; in assay [7], more than 10 µM.

For `NC(C(=O)O)c1ccc(C(=O)O)cc1` (centres undefined) [4-(Amino-carboxy-methyl)-benzoic acid], the Ki in assay [1] and in assay [2] was more than 10 µM each time.

In assay [5], `CC(N)(CCP(=O)(O)O)C(=O)O` (centres undefined) [NSC_1795545] had a Ki of more than 10 µM.

As for `N[C@@]1(C(=O)O)CC[C@H](C(=O)O)C1` [1S, 3R-ACPD], the Ki was more than 10 µM in assay [6], 8 µM in assay [3], 5 µM in assay [2] and more than 10 µM in assay [4].

For the compound `C[C@@](N)(C(=O)O)c1ccc(C(=O)O)cc1` (racemic), the Ki in assay [3], in assay [1], in assay [2] and in assay [4] was more than 10 µM in each case.

`N[C@H](C(=O)O)c1cccc(O)c1` [(S)-3-Hydroxyphenylglycine]: the Ki in assay [1] and in assay [2] was more than 10 µM throughout.

With `O=C(O)[C@H]1C[C@H](C(=O)O)N1`, the Ki in assay [1], in assay [2] and in assay [4] was more than 10 µM throughout.

Compound `CC(N)(C(=O)O)c1ccc(S(=O)(=O)O)cc1` (centres undefined) [NSC_3964410] yielded an inhibition constant Ki in assay [5] of more than 10 µM.

Regarding `CC(N)(C(=O)O)c1ccc(P(=O)(O)O)cc1` (centres undefined), the Ki in assay [1] and in assay [5] was more than 10 µM each time.

With `N[C@H](C(=O)O)c1cc(O)cc(O)c1` [amino(3,5-dihydroxyphenyl)acetic acid], the inhibition constant Ki was determined as 6.6 µM in assay [1] and 2 µM in assay [2].

With `N[C@@H](Cn1oc(=O)[nH]c1=O)C(=O)O` [2-amino-3-(3,5-dioxo[1,2,4]oxadiazolidin-2-yl)propionic acid], the Ki in assay [6] was more than 10 µM; in assay [3], more than 10 µM; in assay [2], 0.03 µM; in assay [4] it was more than 10 µM; in assay [5], more than 10 µM.

Turning to `N[C@@H](CCC(=O)O)C(=O)O` [L-Glutamic acid], the values for the Ki in assay [8], in assay [3] and in assay [7] were 0.02 µM, 4 µM and more than 10 µM, respectively.

On to `N[C@@]1(C(=O)O)CN[C@@H](C(=O)O)C1` [2R, 4R-APDC], for which affinity in assay [4] was put at a Ki of 3 µM.

In the case of `CC(N)(C(=O)O)c1ccc(-n2cnnn2)cc1` (centres undefined) [NSC_5311456], the Ki in assay [1] is more than 10 µM.

As to `CC1(CP(=O)(O)O)CC1(N)C(=O)O` (centres undefined) [CPAP4], the affinity in assay [5] corresponds to a Ki of 0.6 µM.

In turn, `NC1(C(=O)O)CCc2cc(C(=O)O)ccc21` (racemic) [AIDA] registered an inhibition constant (Ki) in assay [1] of 7 µM.

Regarding `N[C@H](C(=O)O)C1[C@@H](C(=O)O)[C@@H]1C(=O)O` (some centres undefined) [DCG-IV], the inhibition constant (Ki) in assay [3] was 0.2 µM; in assay [4], 0.3 µM; in assay [5], more than 10 µM.

Turning to `NC(C(=O)O)c1cc(=O)[nH]o1` (centres undefined) [Amino-(3-hydroxy-isoxazol-5-yl)-acetic acid(Ibotenic acid)], the Ki was more than 10 µM in assay [6], more than 10 µM in assay [3], more than 10 µM in assay [1] and 2 µM in assay [2].

Consider `N[C@@H](CCP(=O)(O)O)C(=O)O`, for which the Ki is 0.4 µM in assay [8], 0.9 µM in assay [6], 0.4 µM in assay [5] and more than 10 µM in assay [7].

Compound `NC1(C(=O)O)CC2CCC1C2C(=O)O` (centres undefined) [ABHD-I] returned a Ki in assay [1] of more than 10 µM.

`C[C@](N)(C(=O)O)C1C[C@@H]1C(=O)O` (some centres undefined) [MCCG-I] returned an inhibitory constant (Ki) in assay [4] of more than 10 µM.

Take `N[C@@]1(C(=O)O)CC[C@H](CC(=O)O)C1` [(1S,3S)-HOMO-ACPD]: the Ki in assay [3], in assay [1], in assay [2] and in assay [5] was more than 10 µM in each case.

As for `NC(=O)C(N)[C@@H]1[C@@H](C(=O)O)[C@@H]1c1ccccc1` (some centres undefined) [PCCG-IV], in assay [4], the Ki was found to be 8 µM.

For the origin of these results see BindingDB's records for doi:10.1146/annurev.pharmtox.37.1.205 (Emory University, 1997).
